The term mortality denotes the percentage killed.

Read-outs that look alike come from different tables or passages of the source.

We go through 12 compounds from patent US9533961B2, “Molecules having certain pesticidal utilities, and intermediates, compositions, and processes related thereto” (priority 2014, dated 2017).

What all share (format): in vivo
For data set [1], the system named is Beet Armyworm (Spodoptera exigua, LAPHEG) ("BAW"). Briefly: Bioassay on Beet Armyworm (BAW), 128-well diet tray assay. The conditions noted are these: 168 h, read-out: BAW % Control (or Mortality) rating. The protocol:
(§1) Certain molecules disclosed in this document were tested against BAW and CEW using procedures described in the following examples. In the reporting of the results, the “BAW & CL Rating Table” was used (See Table Section).
Bioassays on BAW were conducted using a 128-well diet tray assay. one to five second instar BAW larvae were placed in each well (3 mL) of the diet tray that had been previously filled with 1 mL of artificial diet to which 50 μg/cm^2 of the test compound (dissolved in 50 μL of 90:10 acetone-water mixture) had been applied (to each of eight wells) and then allowed to dry. Trays were covered with a clear self-adhesive cover and held at 25° C., 14:10 light-dark for five to seven days. Percent mortality was recorded for the larvae in each well; activity in the eight wells was then averaged. The results are indicated in the table entitled “Table ABC: Biological Results” (See Table Section).

The subject of data set [2] is Green Peach Aphid (Myzus persicae, MYZUPE) ("GPA"). Put plainly: Bioassay on Green Peach Aphid (GPA), foliar spray on cabbage seedlings. The following applies: 72 h, read-out: GPA % Control (or Mortality) rating. The protocol:
Certain molecules disclosed in this document were tested against GPA using procedures described in the following example. In the reporting of the results, the “GPA Rating Table” was used (See Table Section).
Cabbage seedlings grown in 3-inch pots, with 2-3 small (3-5 cm) true leaves, were used as test substrate. The seedlings were infested with 20-50 GPA (wingless adult and nymph stages) one day prior to chemical application. Four pots with individual seedlings were used for each treatment. Test compounds (2 mg) were dissolved in 2 mL of acetone/methanol (1:1) solvent, forming stock solutions of 1000 ppm test compound. The stock solutions were diluted 5× with 0.025% Tween 20 in water to obtain the solution at 200 ppm test compound. A hand-held aspirator-type sprayer was used for spraying a solution to both sides of […] leaves until runoff. Reference plants (solvent check) were sprayed with the diluent only containing 20% by volume of acetone/methanol (1:1) solvent. Treated plants were held in a holding room for three days at approximately 25° C. and ambient relative humidity (RH) prior to grading. Evaluation was conducted by counting the number of live aphids per plant under a microscope. Percent Control was measured by using Abbott's correction formula (W. S. Abbott, “A Method of Computing the Effectiveness of an Insecticide” J. Econ. Entomol. 18 (1925), pp. 265-267) as follows. Corrected % Control=100*(X−Y)/X • where • X=No. of live aphids on solvent check plants and • Y=No. of live aphids on treated plants

For data set [3], the system named is Cabbage Looper (Trichoplusia ni, TRIPNI) ("CL"). Briefly: Bioassay on Cabbage Looper (CL), 128-well diet tray assay. The following applies: 168 h, read-out: CL % Control (or Mortality) rating. Here is the method:
as §1
Bioassays on CL were conducted using a 128-well diet tray assay. one to five second instar CL larvae were placed in each well (3 mL) of the diet tray that had been previously filled with 1 mL of artificial diet to which 50 μg/cm^2 of the test compound (dissolved in 50 μL of 90:10 acetone-water mixture) had been applied (to each of eight wells) and then allowed to dry. Trays were covered with a clear self-adhesive cover and held at 25° C., 14:10 light-dark for five to seven days. Percent mortality was recorded for the larvae in each well; activity in the eight wells was then averaged. The results are indicated in the table entitled “Table ABC: Biological Results” (See Table Section).

Data set [4] has as its system Yellow Fever Mosquito (Aedes aegypti, AEDSAE) ("YFM"). Put plainly: Bioassay on Yellow Fever Mosquito (YFM), 96-well plate larval assay. The conditions noted are these: about 1 day-old larvae, from 4000 ppm master plate, scored on mortality after 3 days. The protocol: Certain molecules disclosed in this document were tested against YFM using procedures described in the following paragraph. In the reporting of the results, the “YFM Rating Table” was used (See Table Section).
Master plates containing 400 μg of a molecule dissolved in 100 μL of dimethyl sulfoxide (DMSO) (equivalent to a 4000 ppm solution) are used. A master plate of assembled molecules contains 15 μL per well. To this plate, 135 μL of a 90:10 water:acetone mixture is added to each well. A robot (Biomek® NXP Laboratory Automation Workstation) is programmed to dispense 15 μL aspirations from the master plate into an empty 96-well shallow plate (“daughter” plate). There are 6 reps (“daughter” plates) created per master. The created daughter plates are then immediately infested with YFM larvae.
The day before plates are to be treated, mosquito eggs are placed in Millipore water containing liver powder to begin hatching (4 g. into 400 mL). After the daughter plates are created using the robot, they are infested with 220 μL of the liver powder/larval mosquito mixture (about 1 day-old larvae). After plates are infested with mosquito larvae, a non-evaporative lid is used to cover the plate to reduce drying. Plates are held at room temperature for 3 days prior to grading. After 3 days, each well is observed and scored based on mortality.

The mark [5] stands for this setting: 50 μg/cm^2 on artificial diet, second instar larvae, five to seven days, 25° C., average of eight wells.
The mark [6] stands for this setting: 200 ppm foliar spray on cabbage seedlings, three days, Abbott corrected % control.

Consider `CC(C)c1cccc(C(=O)NCCc2ccc(-c3ncn(-c4ccc(OC(F)(F)F)cc4)n3)cc2)c1` [F41, 3-Isopropyl-N-(4-(1-(4-(trifluoromethoxy)phenyl)-1H-1,2,4-triazol-3-yl)phenethyl)benzamide], for which the mortality at 50 µg/cm2 in data set [1] (setting [5]) is 0%; in data set [3], 50 to 100%. Also, the mortality at 200 ppm in data set [2] (setting [6]) stood at 0%. In data set [4], the “YFM % Control (or Mortality) rating” value is reported as “D (No activity noticed in this bioassay)”.
Take `COc1cccc(C(=O)Nc2ccc(-c3ncn(-c4ccc(OC(F)(F)C(F)(F)F)cc4)n3)cc2)c1` [F14, 3-Methoxy-N-(4-(1-(4-(perfluoroethoxy)phenyl)-1H-1,2,4-triazol-3-yl)phenyl)benzamide]: the mortality at 50 µg/cm2 in data set [1] (setting [5]) and in data set [3] was 50 to 100% each time. In addition, the mortality at 200 ppm in data set [2] (setting [6]) turned out to be 0%. Further, the “YFM % Control (or Mortality) rating” value in data set [4] was “A (80-100)”.
Turning to `Cc1cccc(C)c1Nc1ccccc1C(=O)Nc1ccc(-c2ncn(-c3ccc(C(F)(F)F)cc3)n2)cc1` [F2, 2-((2,6-Dimethylphenyl)amino)-N-(4-(1-(4-(trifluoromethyl)phenyl)-1H-1,2,4-triazol-3-yl)phenyl)benzamide], the mortality at 50 µg/cm2 in data set [1] and in data set [3] was 0% throughout. Besides, the mortality at 200 ppm in data set [2] (foliar) is 0 to 80%.
For `Cc1cccc(C)c1Nc1ccccc1C(=O)Nc1ccc(-c2ncn(-c3ccc(OC(F)(F)F)cc3)n2)cc1` [F1, 2-((2,6-dimethylphenyl)amino)-N-(4-(1-(4-(trifluoromethoxy)phenyl)-1H-1,2,4-triazol-3-yl)phenyl)benzamide], the mortality at 50 µg/cm2 in data set [1] (setting [5]) and in data set [3] was 0% throughout. Also, the mortality at 200 ppm in data set [2] (setting [6]) was in the range of 0 to 80%.
As to `O=C(Nc1ccc(-c2ncn(-c3ccc(OC(F)(F)F)cc3)n2)cc1)c1ccccc1Nc1ccccc1` [F7, 2-(phenylamino)-N-(4-(1-(4-(trifluoromethoxy)phenyl)-1H-1,2,4-triazol-3-yl)phenyl)benzamide], the mortality at 50 µg/cm2 in data set [1] (setting [5]) and in data set [3] was 50 to 100% throughout. The mortality at 200 ppm in data set [2] (setting [6]) lay in the range of 0 to 80%. Moreover, in data set [4], the “YFM % Control (or Mortality) rating” value is “A (80-100)”.
Consider `CC(C)c1cccc(C(=O)NCc2ccc(-c3ncn(-c4ccc(OC(F)(F)F)cc4)n3)cc2)c1` [F28, 3-Isopropyl-N-(4-(1-(4-(trifluoromethoxy)phenyl)-1H-1,2,4-triazol-3-yl)benzyl)benzamide], for which the mortality at 50 µg/cm2 in data set [1] (setting [5]) is 50 to 100%; in data set [3], 0%. For the same compound, the “YFM % Control (or Mortality) rating” value in data set [4] is recorded as “D (No activity noticed in this bioassay)”.
`O=C(Nc1ccc(-c2ncn(-c3ccc(OC(F)(F)F)cc3)n2)cc1)c1ccccc1Cc1ccccc1` [F3, 2-benzyl-N-(4-(1-(4-(trifluoromethoxy)phenyl)-1H-1,2,4-triazol-3-yl)phenyl)benzamide]: the mortality at 50 µg/cm2 in data set [1] (setting [5]) and in data set [3] was 50 to 100% each time. In data set [4], the “YFM % Control (or Mortality) rating” value is on record as “D (No activity noticed in this bioassay)”.
In the case of `COc1ccccc1C(=O)Nc1ccc(-c2ncn(-c3ccc(OC(F)(F)C(F)(F)F)cc3)n2)cc1` [F12, 2-Methoxy-N-(4-(1-(4-(perfluoroethoxy)phenyl)-1H-1,2,4-triazol-3-yl)phenyl)benzamide], the values for the mortality at 50 µg/cm2 in data set [1] (setting [5]) and in data set [3] were 0% and 50 to 100%, respectively. In data set [4], the “YFM % Control (or Mortality) rating” value is given as “D (No activity noticed in this bioassay)”.
In the case of `O=C(NCc1ccc(-c2ncn(-c3ccc(OC(F)(F)F)cc3)n2)cc1)c1ccccc1-c1ccccc1` [F27, N-(4-(1-(4-(Trifluoromethoxy)phenyl)-1H-1,2,4-triazol-3-yl)benzyl)biphenyl-2-carboxamide], the mortality at 50 µg/cm2 lay within 0 to 50% in data set [1] (setting [5]) and 50 to 100% in data set [3]. Besides, the “YFM % Control (or Mortality) rating” value in data set [4] was “B (More than 0 - Less than 80)”.
`CC(C)c1cccc(C(=O)Nc2ccc(-c3ncn(-c4ccc(OC(F)(F)C(F)(F)F)cc4)n3)cc2)c1` [F16, 3-Isopropyl-N-(4-(1-(4-(perfluoroethoxy)phenyl)-1H-1,2,4-triazol-3-yl)phenyl)benzamide]: the results for the mortality at 50 µg/cm2 in data set [1] (setting [5]) and in data set [3] were 0% and 50 to 100%, respectively. In data set [4], the “YFM % Control (or Mortality) rating” value was “D (No activity noticed in this bioassay)”.
`CC(C)c1cccc(C(=O)Nc2ccc(-c3ncn(-c4ccc(C(F)(F)F)cc4)n3)cc2)c1` [F24, 3-Isopropyl-N-(4-(1-(4-(trifluoromethyl)phenyl)-1H-1,2,4-triazol-3-yl)phenyl)benzamide]: the mortality at 50 µg/cm2 in data set [1] (setting [5]) was 0%; in data set [3], 50 to 100%. In addition, in data set [4], the “YFM % Control (or Mortality) rating” value is recorded as “D (No activity noticed in this bioassay)”.
Take `COc1ccccc1C(=O)Nc1ccc(-c2ncn(-c3ccc(OC(F)(F)F)cc3)n2)cc1` [F11, 2-Methoxy-N-(4-(1-(4-(trifluoromethoxy)phenyl)-1H-1,2,4-triazol-3-yl)phenyl)benzamide]: the results for the mortality at 50 µg/cm2 in data set [1] (setting [5]) and in data set [3] were 50 to 100% and 0%, respectively. Also, the “YFM % Control (or Mortality) rating” value in data set [4] is listed as “D (No activity noticed in this bioassay)”.
